Laboratory results published in US20160158200A1, “Combinations of Hepatitis C Virus Inhibitors” (priority 2013, published 2016).

System: HCV genotype-1a variant with glutamine 30 changed to glutamate in the NS5A protein
Type: cell-based
Conditions: test compound titrated with BMS-790052 fixed at 200 nM; genotype 1a Q30E replicon
How it was run: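 Synergy was assessed by combining several fixed amounts of an NS5A-targeting compound with a titration of the second compound of interest.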

| Compound | Fold-Synergistic 1a (Q30E) [fold] |
| --- | --- |
| CC(C)(C)C(NC(=O)C1CCCO1)c1nc(-c2ccc(-c3ccc(-c4c[nH]c(C(NC(=O)C5CCCO5)C(C)(C)C)n4)cc3)cc2)c[nH]1 [Compound L-65] | >100 |
| CC1CN(C(C)(C)C(=O)N2CCC(C)(C)C2c2nc(-c3ccc(-c4ccc(-c5c[nH]c(C6N(C(=O)C(C)(C)N7CC(C)OC(C)C7)CCC6(C)C)n5)cc4)cc3)c[nH]2)CC(C)O1 (stereo not drawn) [Compound W-228] | <10 |
| Cc1cc(C(=O)N[C@H](c2ncc(-c3ccc(-c4ccc(-c5cnc([C@@H](NC(=O)c6cc(C)oc6C(F)(F)F)C(C)C)[nH]5)cc4)cc3)[nH]2)C(C)C)c(C(F)(F)F)o1 [Compound S-102] | >100 |
| CC(C)(C)[C@H](NC(=O)CC12CC3CC(CC(C3)C1)C2)c1nc(-c2ccc(-c3ccc(-c4c[nH]c([C@@H](NC(=O)CC56CC7CC(CC(C7)C5)C6)C(C)(C)C)n4)cc3)cc2)c[nH]1 [Compound N-63] | >100 |
| CC(C)[C@H](NC(=O)C(=O)c1ncccc1F)c1ncc(-c2ccc(-c3ccc(-c4cnc([C@@H](NC(=O)C(=O)c5ncccc5F)C(C)C)[nH]4)cc3)cc2)[nH]1 [Compound P-120] | >100 |
| CC(C)CCC(=O)N[C@H](c1ncc(-c2ccc(-c3ccc(-c4cnc([C@@H](NC(=O)CCC(C)C)C(C)C)[nH]4)cc3)cc2)[nH]1)C(C)C [Compound S-32] | >100 |
| CC(C)(C)OC(=O)N1CC(F)(F)CC1(C)C(=O)N[C@H](c1nc(-c2ccc(-c3ccc(-c4c[nH]c([C@@H](NC(=O)C5(C)CC(F)(F)CN5C(=O)OC(C)(C)C)C(C)(C)C)n4)cc3)cc2)c[nH]1)C(C)(C)C (single isomer, unassigned) [Compound W-77] | >100 |
| CC(=O)N(C)C1(C(=O)N[C@H](c2nc(-c3ccc(-c4ccc(-c5c[nH]c([C@@H](NC(=O)C6(N(C)C(C)=O)CC6)C(C)(C)C)n5)cc4)cc3)c[nH]2)C(C)(C)C)CC1.O=C(O)C(F)(F)F.O=C(O)C(F)(F)F [Compound L-11] | >100 |
| CC1([C@H](NC(=O)C(=O)N2CCC(C(F)(F)F)CC2)c2nc(-c3ccc(-c4ccc(-c5c[nH]c([C@@H](NC(=O)C(=O)N6CCC(C(F)(F)F)CC6)C6(C)CC6)n5)cc4)cc3)c[nH]2)CC1 [Compound W-59] | >100 |
| CC(C)(C)OC(=O)NC1CCCCC1C(=O)N[C@H](c1nc(-c2ccc(-c3ccc(-c4c[nH]c([C@@H](NC(=O)C5CCCCC5NC(=O)OC(C)(C)C)C(C)(C)C)n4)cc3)cc2)c[nH]1)C(C)(C)C (single isomer, unassigned) [Compound W-23C] | >100 |
| CC(C)(C)[C@H](NC(=O)C1CCC(F)(F)CC1)c1nc2ccc3cc(-c4ccc5c(ccc6nc([C@@H](NC(=O)C7CCC(F)(F)CC7)C(C)(C)C)[nH]c65)c4)ccc3c2[nH]1 [Compound B25] | >100 |
| Cc1cc(C(=O)N[C@H](c2ncc(-c3ccc(-c4ccc(-c5cnc([C@@H](NC(=O)c6cc(C)on6)C(C)C)[nH]5)cc4)cc3)[nH]2)C(C)C)no1 [Compound S-18] | >100 |
| CC(C)(C)C(NC(=O)CC1CCOC2(CC2)C1)c1nc(-c2ccc(-c3ccc(-c4c[nH]c(C(NC(=O)CC5CCOC6(CC6)C5)C(C)(C)C)n4)cc3)cc2)c[nH]1 (mixture of isomers) [Compound L-75] | >100 |
| COC(C)(CO)C(=O)N[C@H](c1nc(-c2ccc(-c3ccc(-c4c[nH]c([C@@H](NC(=O)C(C)(CO)OC)C(C)(C)C)n4)cc3)cc2)c[nH]1)C(C)(C)C (single isomer, unassigned) [Compound W-234] | >10 |
| O=C(N1CCC[C@H]1c1ncc(-c2ccc(-c3ccc(-c4cnc([C@@H]5CCCN5C(=O)C5(c6ccc(F)cc6Cl)CCCC5)[nH]4)cc3)cc2)[nH]1)C1(c2ccc(F)cc2Cl)CCCC1 [Compound S-156] | <10 |
| CC(C)(C)[C@H](NC(=O)[C@]1(C)C[C@@H](F)CN1)c1nc(-c2ccc(-c3ccc(-c4c[nH]c([C@@H](NC(=O)[C@]5(C)C[C@@H](F)CN5)C(C)(C)C)n4)cc3)cc2)c[nH]1 [Compound W-209] | >100 |
| CC(C)(C)OC(=O)N1CC2CC2C1C(=O)NC(c1nc(-c2ccc(-c3ccc(-c4c[nH]c(C(NC(=O)C5C6CC6CN5C(=O)OC(C)(C)C)C(C)(C)C)n4)cc3)cc2)c[nH]1)C(C)(C)C (stereo not drawn) [Compound W-79] | >100 |
| CC(C)(C)[C@H](NC(=O)C1CCCCC1CO)c1nc(-c2ccc(-c3ccc(-c4c[nH]c([C@@H](NC(=O)C5CCCCC5CO)C(C)(C)C)n4)cc3)cc2)c[nH]1 (single isomer, unassigned) [Compound L-141c] | >100 |
| CC(C)[C@H](NC(=O)c1cc2ccccc2s1)c1ncc(-c2ccc(-c3ccc(-c4cnc([C@@H](NC(=O)c5cc6ccccc6s5)C(C)C)[nH]4)cc3)cc2)[nH]1 [Compound P-98] | >100 |
| CC(C)(C)OC(=O)N1CCOCC1C(=O)NC(c1nc(-c2ccc(-c3ccc(-c4c[nH]c(C(NC(=O)C5COCCN5C(=O)OC(C)(C)C)C(C)(C)C)n4)cc3)cc2)c[nH]1)C(C)(C)C [Compound L-61] | >100 |

| Compound | Fold-Synergistic 1a (Q30E) [fold] |
| --- | --- |
| CC(C)[C@H](NC(=O)Cc1ncccn1)c1ncc(-c2ccc(-c3ccc(-c4cnc([C@@H](NC(=O)Cc5ncccn5)C(C)C)[nH]4)cc3)cc2)[nH]1 [Compound P-95] | >10 |
| COc1cnc(C(=O)N2CCC[C@H]2c2ncc(-c3ccc(-c4ccc(-c5cnc([C@@H]6CCCN6C(=O)c6ncc(OC)c7ccccc67)[nH]5)cc4)cc3)[nH]2)c2ccccc12 [Compound S-199] | >100 |
| CC1(C)CCCC(C)(C(=O)N[C@H](c2nc(-c3ccc(-c4ccc(-c5c[nH]c([C@@H](NC(=O)C6(C)CCCC(C)(C)O6)C(C)(C)C)n5)cc4)cc3)c[nH]2)C(C)(C)C)O1 (single isomer, unassigned) [Compound W-167] | >100 |
| CN(C(=O)C(=O)N[C@H](c1nc(-c2ccc(-c3ccc(-c4c[nH]c([C@@H](NC(=O)C(=O)N(C)C5CC5)C(C)(C)C)n4)cc3)cc2)c[nH]1)C(C)(C)C)C1CC1 [Compound W-50] | >100 |
| CC1(C)CCN(C(=O)C(=O)N2C(C)(C)CCCC2(C)C)C1c1nc(-c2ccc(-c3ccc(-c4c[nH]c(C5N(C(=O)C(=O)N6C(C)(C)CCCC6(C)C)CCC5(C)C)n4)cc3)cc2)c[nH]1.O=C(O)C(F)(F)F.O=C(O)C(F)(F)F (stereo not drawn) [Compound W-246] | >100 |
| CCN(CC(F)(F)F)C(=O)C(=O)NC(c1nc(-c2ccc(-c3ccc(-c4c[nH]c(C(NC(=O)C(=O)N(CC)CC(F)(F)F)C5CC5)n4)cc3)cc2)c[nH]1)C1CC1 [Compound L-35] | >100 |
| CC(C)(C(=O)N[C@H](c1nc(-c2ccc(-c3ccc(-c4c[nH]c([C@@H](NC(=O)C(C)(C)C(O)C5CCC(F)(F)CC5)C(C)(C)C)n4)cc3)cc2)c[nH]1)C(C)(C)C)C(O)C1CCC(F)(F)CC1 (single isomer, unassigned) [Compound N-143C] | >100 |
| CC1(C)CCN(C(=O)C2CCC(F)(F)CC2)C1c1nc(-c2ccc(-c3ccc(-c4c[nH]c(C5N(C(=O)C6CCC(F)(F)CC6)CCC5(C)C)n4)cc3)cc2)c[nH]1 (stereo not drawn) [Compound W-217] | >10 |
| CC(C)(C)[C@H](NC(=O)C1CCCCC1CO)c1nc(-c2ccc(-c3ccc(-c4c[nH]c([C@@H](NC(=O)C5CCCCC5CO)C(C)(C)C)n4)cc3)cc2)c[nH]1 (single isomer, unassigned) [Compound L-141a] | >100 |
| CC(C)(C)[C@H](NS(=O)(=O)C1CCCCC1)c1nc(-c2ccc(-c3ccc(-c4c[nH]c([C@@H](NS(=O)(=O)C5CCCCC5)C(C)(C)C)n4)cc3)cc2)c[nH]1 [Compound L-118] | >100 |
| COc1ccc(C(=O)N[C@H](c2nc(-c3ccc(-c4ccc(-c5c[nH]c([C@@H](NC(=O)c6ccc(OC)cc6)C(C)(C)C)n5)cc4)cc3)c[nH]2)C(C)(C)C)cc1 [Compound N-54] | >100 |
| CC(=O)NC1(C(=O)N[C@H](c2nc(-c3ccc(-c4ccc(-c5c[nH]c([C@@H](NC(=O)C6(NC(C)=O)CCCCC6)C(C)(C)C)n5)cc4)cc3)c[nH]2)C(C)(C)C)CCCCC1 [Compound W-252] | >100 |
| CC(C)[C@H](NC(=O)c1ccc(F)cc1Cl)c1ncc(-c2ccc(-c3ccc(-c4cnc([C@@H](NC(=O)c5ccc(F)cc5Cl)C(C)C)[nH]4)cc3)cc2)[nH]1 [Compound S-88] | >100 |
| CC(C)(C(=O)N[C@H](c1nc(-c2ccc(-c3ccc(-c4c[nH]c([C@@H](NC(=O)C(C)(C)C(O)c5ccccc5)C(C)(C)C)n4)cc3)cc2)c[nH]1)C(C)(C)C)C(O)c1ccccc1 (single isomer, unassigned) [Compound N-127B] | >100 |
| CC(C)[C@H](NC(=O)C(=O)c1ccncc1F)c1ncc(-c2ccc(-c3ccc(-c4cnc([C@@H](NC(=O)C(=O)c5ccncc5F)C(C)C)[nH]4)cc3)cc2)[nH]1 [Compound P-121] | >100 |
| CC(C)(C)[C@H](NC(=O)[C@@H]1CCC(=O)N1)c1nc(-c2ccc(-c3ccc(-c4c[nH]c([C@@H](NC(=O)[C@@H]5CCC(=O)N5)C(C)(C)C)n4)cc3)cc2)c[nH]1.O=C(O)C(F)(F)F.O=C(O)C(F)(F)F [Compound L-10] | >10 |
| CC(C)CC(=O)NC1(c2ncc(-c3ccc(-c4ccc(-c5cnc(C6(NC(=O)CC(C)C)CCC6)[nH]5)cc4)cc3)[nH]2)CCC1.O=C(O)C(F)(F)F.O=C(O)C(F)(F)F [Compound N-11] | <10 |
| O=C(c1cccc(Oc2ccccc2)c1)N1CCC[C@H]1c1ncc(-c2ccc(-c3ccc(-c4cnc([C@@H]5CCCN5C(=O)c5cccc(Oc6ccccc6)c5)[nH]4)cc3)cc2)[nH]1 [Compound S-116] | <10 |
| CC(C)(C)OC(=O)N1CC(F)(F)C[C@H]1C(=O)N[C@H](c1nc(-c2ccc(-c3ccc(-c4c[nH]c([C@@H](NC(=O)[C@@H]5CC(F)(F)CN5C(=O)OC(C)(C)C)C(C)(C)C)n4)cc3)cc2)c[nH]1)C(C)(C)C [Compound W-88] | >100 |
